{
  "source": "a melting point compilation (Tetko et al.)",
  "data": [
    {"details": "a range is the spread between reports", "units": {"melting point": "°C"}, "values": [
      {"compound": "CCC(C)C(=O)OC1CC(C)C=C2C=CC(C)C(CCC3CC(O)CC(=O)O3)C21", "note": "(stereo not given)", "melting point": "174 to 175"},
      {"compound": "c1ccc2c(c1)ccc1cccnc12", "melting point": "50 to 52"},
      {"compound": "CCCCCCCCCCCCN(C)C", "melting point": "-20 to -15"},
      {"compound": "Cc1cccc(C)c1O", "melting point": "45.7 to 49"},
      {"compound": "c1ccc2c(c1)CCO2", "melting point": "-21.5 to -21"},
      {"compound": "O=C(O)c1cccc(F)c1F", "melting point": "162 to 164"},
      {"compound": "CN(C)c1ccc(Cc2ccc(N(C)C)cc2)cc1", "melting point": "87 to 91.5"},
      {"compound": "CC(C)(C)CC(C)(C)C", "melting point": "-67 to -66.5"},
      {"compound": "CCCCCCCCCCCCCCCCCCCCCC", "melting point": "42 to 45"},
      {"compound": "ON=C1CCCCC1", "melting point": "89 to 90"},
      {"compound": "CC(=O)c1c[nH]c2ccccc12", "melting point": "189 to 194"},
      {"compound": "CCOC(=O)C(C(=O)OCC)c1ccccc1", "melting point": "16 to 16.5"},
      {"compound": "O=[N+]([O-])c1ccccc1", "melting point": "5 to 6"},
      {"compound": "CC=C(C)CCC", "melting point": "-119 to -118"},
      {"compound": "CN(C)Cc1cc(C(C)(C)C)c(O)c(C(C)(C)C)c1", "melting point": "91 to 93.5"},
      {"compound": "O=C(OC(=O)C(F)(F)F)C(F)(F)F", "melting point": "-65 to -63"},
      {"compound": "C=Cc1ccccc1Cl", "melting point": "-63.1 to -63"},
      {"compound": "O=C(O)c1ccc(-c2ccccc2)cc1", "melting point": "225 to 228"},
      {"compound": "Cc1ccc2sc(C)nc2c1", "melting point": "38 to 40"},
      {"compound": "O=C(O)c1ccc(O)cc1", "melting point": "214 to 217"},
      {"compound": "CC(=O)c1ccc(C)s1", "melting point": "26 to 27.5"},
      {"compound": "Cc1cccc([N+](=O)[O-])c1", "melting point": "15.5 to 16"},
      {"compound": "C=CCCCCCCCCC(=O)O", "melting point": "24 to 24.5"},
      {"compound": "Cc1cccc(C(=O)O)c1O", "melting point": "165 to 166"},
      {"compound": "CC/C=C/CC(=O)O", "melting point": "11 to 12"},
      {"compound": "CCOC(=O)C(=O)Nc1ccccc1", "melting point": "65.5 to 67"},
      {"compound": "C#CCCC(C)C", "melting point": "-125 to -124"},
      {"compound": "CCC(=O)CC", "melting point": "-40 to -39"},
      {"compound": "Cc1ccc(C)o1", "melting point": "-62.8 to -62"},
      {"compound": "Cc1ccc(S(=O)(=O)NC2CCCCC2)cc1", "melting point": "84.5 to 88"},
      {"compound": "Clc1ccc(Br)c(Cl)c1", "melting point": "26 to 27"},
      {"compound": "N#CCCCCC#N", "melting point": "1 to 2"},
      {"compound": "O=C(O)c1cccc(O)c1O", "melting point": "204 to 206"},
      {"compound": "COC(C)(C)C", "melting point": -109},
      {"compound": "FC(C(F)(F)F)C(F)(F)F", "melting point": "-131 to -127"},
      {"compound": "C=CC(CC)CC", "melting point": "-128 to -127"},
      {"compound": "CCCCCCCCCCCCO", "melting point": "24 to 26"},
      {"compound": "c1ccc2c3c([nH]c2c1)CCCC3", "melting point": "118 to 120"},
      {"compound": "O=[N+]([O-])c1ccccc1SSc1ccccc1[N+](=O)[O-]", "melting point": "194 to 196"},
      {"compound": "Cc1ccc(N)c(N)c1", "melting point": "88 to 89.5"},
      {"compound": "O=Cc1cc(Cl)ccc1Cl", "melting point": "56 to 58"},
      {"compound": "N#Cc1c(F)cccc1F", "melting point": "30 to 31"},
      {"compound": "O=C(O)c1ccccc1C(F)(F)F", "melting point": "109 to 111"},
      {"compound": "CC(Oc1cccc(Cl)c1)C(=O)O", "note": "(stereo not given)", "melting point": "113 to 115"},
      {"compound": "CCCCCCCCOC(=O)c1cc(O)c(O)c(O)c1", "melting point": "99 to 102"},
      {"compound": "O=[N+]([O-])c1cc(I)c(O)c(I)c1", "melting point": "153 to 157"},
      {"compound": "NC(=O)c1ccc(O)cc1", "melting point": "161 to 162"},
      {"compound": "OC(c1ccc(Cl)cc1)(c1ccc(Cl)cc1)C(Cl)(Cl)Cl", "melting point": "77.5 to 78.5"},
      {"compound": "Cc1nnc(N)s1", "melting point": "224 to 225"},
      {"compound": "c1ccc(CSCc2ccccc2)cc1", "melting point": "49 to 49.5"},
      {"compound": "c1c[nH]cn1", "melting point": "90 to 90.5"},
      {"compound": "CCCCCCCCCCCCCC(C)=O", "melting point": "39 to 39.5"},
      {"compound": "S=C=Nc1ccc(N=C=S)cc1", "melting point": "131 to 132"},
      {"compound": "C=CCC(C)(C)C", "melting point": -137},
      {"compound": "CCCOC(=O)c1ccc(O)cc1", "melting point": "96 to 97"},
      {"compound": "CCCCCCCCCCCCCC(=O)OC", "melting point": "18 to 19"},
      {"compound": "O=Cc1ccc([N+](=O)[O-])o1", "melting point": "35.5 to 36"},
      {"compound": "COc1cc(OC)c(C=O)c(OC)c1", "melting point": "120 to 121"},
      {"compound": "NCc1cccnc1", "melting point": "-21.1 to -21"},
      {"compound": "COC(C(=O)c1ccccc1)c1ccccc1", "note": "(stereo not given)", "melting point": "47 to 49.5"},
      {"compound": "CCCCCCCC(C)C", "melting point": "-75 to -74.6"},
      {"compound": "N#CCc1ccccc1", "melting point": "-24 to -23.8"},
      {"compound": "CCCCCCCCCCCCCCCCCCCC(=O)O", "melting point": "75 to 75.4"},
      {"compound": "Cc1c(F)c(F)c(F)c(F)c1F", "melting point": "-30 to -29.8"},
      {"compound": "Cc1ccc(O)c(C(C)(C)C)c1", "melting point": "51.5 to 52"},
      {"compound": "c1ccc2c(c1)CCCC2", "melting point": "-36 to -31"},
      {"compound": "N#CCCCCCCC#N", "melting point": "-3.5 to -3"},
      {"compound": "Brc1cncc2ccccc12", "melting point": "41 to 41.5"},
      {"compound": "Clc1c(Cl)c(Cl)c(Cl)c(Cl)c1Cl", "melting point": "228 to 232"},
      {"compound": "CCC(C)(C)C", "melting point": "-100 to -99"},
      {"compound": "CCCCCCc1ccc(O)cc1O", "melting point": "65 to 68"},
      {"compound": "CCCCCC(=O)OCCC", "melting point": "-69 to -68.7"},
      {"compound": "SCc1ccccc1", "melting point": "-30 to -29"},
      {"compound": "ClC1=C(Cl)[C@]2(Cl)[C@@H]3[C@@H]4C[C@@H]([C@H]5O[C@@H]45)[C@@H]3[C@@]1(Cl)C2(Cl)Cl", "melting point": "175 to 176"},
      {"compound": "CCC1(C(C)C)C(=O)NC(=O)NC1=O", "melting point": "198 to 203"},
      {"compound": "c1ccc(COc2ccc3[nH]ccc3c2)cc1", "melting point": "99 to 102"},
      {"compound": "c1cnccn1", "melting point": "53 to 55"},
      {"compound": "O=[N+]([O-])c1ccc(Cl)c(Cl)c1Cl", "melting point": "55 to 56"},
      {"compound": "CCCCCCCCCCCCCCO", "melting point": "39 to 40"},
      {"compound": "CCCCCCCCCCCCCCC(C)O", "note": "(stereo not given)", "melting point": "44 to 47"},
      {"compound": "CCOCCOCCOCC", "melting point": "-45 to -44"},
      {"compound": "O=C(O)c1ccccc1-c1ccc(C(F)(F)F)cc1", "melting point": "169 to 170"},
      {"compound": "ClCC(Cl)(Cl)Cl", "melting point": "-70.2 to -70"},
      {"compound": "COC(=O)CS(=O)(=O)c1ccccc1", "melting point": "30 to 35"},
      {"compound": "CC(C)(C)Cl", "melting point": "-26 to -25"}
    ]}
  ]
}
